Experimental data reported in US11970463B2, “Compounds and their use” (ASTRAZENECA AB, priority 2021, dated 2024).
In brackets after ≈: the same amount, converted by molar mass. Where two headings read alike, the source gives them in different places.

Assays:
Human NLRP3 [1] = target: T1, Human NLRP3 (Homo sapiens (Human), UniProt Q96P20)
[2] = Solubility (Test F), McIlvaine buffer pH 6.5; type: physicochemical; conditions: McIlvaine buffer pH 6.5, 25° C., 24 to 72 h, theoretical maximum 200 μM; for solubility: disodium hydrogenphosphate-citric acid (McIlvaine) buffer, 25 °C, pH 6.5, aqueous buffer, thermodynamic from solid
Human NLRP3 [3] = target: T1, Human NLRP3; remark: listed apart in the source
Human NLRP3 [4] = target: T1, Human NLRP3; test: Human NLRP3 speck formation assay (Test A), nigericin triggered ASC-speck formation in ASC-GFP reporter monocytes
Solubility (Test E) = type: physicochemical
hERG = hERG (Homo sapiens (Human), UniProt Q12809); test: hERG assay (Test D), SyncroPatch 384PE patch clamp, hERG-expressing CHO cells; type: cell-based; conditions: rt
[5] = Test C IC50, IL-1β release, THP-1 cells, LPS 2 μg/mL 24 h, BzATP 1 mM

Chain of hERG (Q12809 whole entry): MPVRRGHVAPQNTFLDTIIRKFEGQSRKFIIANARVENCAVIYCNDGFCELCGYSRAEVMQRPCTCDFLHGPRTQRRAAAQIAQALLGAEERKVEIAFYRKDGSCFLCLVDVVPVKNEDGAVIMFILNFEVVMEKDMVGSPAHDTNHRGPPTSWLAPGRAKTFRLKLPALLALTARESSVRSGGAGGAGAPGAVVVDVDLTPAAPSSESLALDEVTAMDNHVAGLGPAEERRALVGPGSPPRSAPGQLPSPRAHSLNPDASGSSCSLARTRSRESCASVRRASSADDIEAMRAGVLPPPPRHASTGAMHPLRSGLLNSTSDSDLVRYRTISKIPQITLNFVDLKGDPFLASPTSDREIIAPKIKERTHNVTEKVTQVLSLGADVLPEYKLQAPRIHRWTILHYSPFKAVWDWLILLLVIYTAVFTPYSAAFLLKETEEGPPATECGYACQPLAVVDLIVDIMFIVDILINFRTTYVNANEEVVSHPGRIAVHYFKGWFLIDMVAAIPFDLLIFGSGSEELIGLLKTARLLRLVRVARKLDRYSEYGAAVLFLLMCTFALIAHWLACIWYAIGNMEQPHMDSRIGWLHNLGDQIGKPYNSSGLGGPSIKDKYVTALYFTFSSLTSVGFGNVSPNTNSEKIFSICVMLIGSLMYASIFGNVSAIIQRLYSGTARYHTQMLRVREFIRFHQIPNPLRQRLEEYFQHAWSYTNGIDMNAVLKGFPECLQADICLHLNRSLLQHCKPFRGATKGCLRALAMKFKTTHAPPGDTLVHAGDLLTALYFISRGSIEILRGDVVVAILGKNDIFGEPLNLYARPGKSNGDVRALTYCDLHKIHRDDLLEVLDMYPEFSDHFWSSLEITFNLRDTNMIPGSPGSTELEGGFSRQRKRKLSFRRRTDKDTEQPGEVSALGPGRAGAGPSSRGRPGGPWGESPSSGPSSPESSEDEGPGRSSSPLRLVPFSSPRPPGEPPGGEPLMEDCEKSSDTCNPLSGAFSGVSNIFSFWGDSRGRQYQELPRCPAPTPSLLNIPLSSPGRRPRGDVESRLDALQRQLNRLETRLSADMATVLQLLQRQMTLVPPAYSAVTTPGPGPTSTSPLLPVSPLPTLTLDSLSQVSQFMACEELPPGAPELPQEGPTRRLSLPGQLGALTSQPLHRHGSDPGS
T1 sequence (Q96P20 whole entry): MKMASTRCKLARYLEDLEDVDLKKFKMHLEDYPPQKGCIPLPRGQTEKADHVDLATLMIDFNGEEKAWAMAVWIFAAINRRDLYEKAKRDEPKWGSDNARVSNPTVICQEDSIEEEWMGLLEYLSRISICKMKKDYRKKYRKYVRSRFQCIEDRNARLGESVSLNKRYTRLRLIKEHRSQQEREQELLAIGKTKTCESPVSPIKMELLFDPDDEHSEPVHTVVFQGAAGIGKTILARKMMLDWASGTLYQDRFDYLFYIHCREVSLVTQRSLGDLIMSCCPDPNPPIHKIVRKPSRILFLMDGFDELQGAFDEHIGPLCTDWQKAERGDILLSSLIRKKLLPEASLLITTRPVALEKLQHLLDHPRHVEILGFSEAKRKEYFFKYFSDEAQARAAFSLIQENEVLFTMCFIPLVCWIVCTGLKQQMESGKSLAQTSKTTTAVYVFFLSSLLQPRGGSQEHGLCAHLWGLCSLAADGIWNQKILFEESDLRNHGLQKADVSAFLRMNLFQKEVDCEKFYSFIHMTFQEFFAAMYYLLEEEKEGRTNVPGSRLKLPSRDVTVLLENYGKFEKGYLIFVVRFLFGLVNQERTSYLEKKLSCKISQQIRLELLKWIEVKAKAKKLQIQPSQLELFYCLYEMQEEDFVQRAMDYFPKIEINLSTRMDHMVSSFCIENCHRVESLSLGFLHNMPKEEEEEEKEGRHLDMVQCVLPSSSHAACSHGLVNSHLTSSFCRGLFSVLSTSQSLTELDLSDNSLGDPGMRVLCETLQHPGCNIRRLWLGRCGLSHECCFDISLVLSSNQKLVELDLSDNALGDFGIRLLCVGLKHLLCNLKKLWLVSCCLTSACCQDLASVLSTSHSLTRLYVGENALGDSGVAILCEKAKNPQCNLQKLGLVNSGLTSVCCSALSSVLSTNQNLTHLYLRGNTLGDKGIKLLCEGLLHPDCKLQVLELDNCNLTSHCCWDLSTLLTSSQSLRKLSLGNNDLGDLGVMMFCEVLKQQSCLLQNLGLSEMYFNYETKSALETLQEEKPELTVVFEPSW

| Structure (SMILES) | IC50 (Human NLRP3 [1]; [5]) | Test F Solubility [2] | IC50 (Human NLRP3 [3]) | EC50 (Human NLRP3 [4]) | solubility [2] | solubility (Solubility (Test E)) | IC50 (Human NLRP3 [1]) | IC50 (hERG) |
| --- | --- | --- | --- | --- | --- | --- | --- | --- |
| Oc1cc(C(F)(F)F)ccc1-c1nnc(N[C@H]2CC[C@@H](O)C2)c2ccccc12 (single isomer, unassigned) [Example 35] | 69 nM | 10.9 µg/mL | 71 nM | 212 nM |  |  |  |  |
| OC[C@@H](O)CNc1nnc(-c2ccc(Cl)cc2O)c2ccccc12 [Example 5, (2S)-3-[[4-(4-chloro-2-hydroxy-phenyl)phthalazin-1-yl]amino]propane-1,2-diol] | 17 nM |  | 45 nM | 122 nM | 7.9 µg/mL (≈ 22.8 µM) | 6 µM (≈ 2.07 µg/mL) |  |  |
| OC[C@@H](O)CNc1nnc(-c2ccc(OC(F)(F)F)cc2O)c2ccccc12 [Example 6, (2S)-3-[[4-[2-hydroxy-4-(trifluoromethoxy)phenyl]phthalazin-1-yl]amino]propane-1,2-diol] | 40 nM |  | 99 nM | 201 nM | > 79.1 µg/mL | 130 µM (≈ 51.4 µg/mL) |  |  |
| Cc1ccc(-c2nnc(NC[C@H](O)CO)c3ccccc23)c(O)c1 [Example 11, (2S)-3-[[4-(2-hydroxy-4-methyl-phenyl)phthalazin-1-yl]amino]propane-1,2-diol] | 23 nM |  | 82 nM | 207 nM | > 65.1 µg/mL | > 1000 µM |  |  |
| Oc1cc(C(F)(F)F)ccc1-c1nnc(N[C@@H]2CC[C@@H](O)C2)c2ccccc12 [Example 16, 2-[4-[[(1R,3R)-3-hydroxycyclopentyl]amino]phthalazin-1-yl]-5-(trifluoromethyl)phenol] | 20 nM |  | 30 nM | 54 nM | 23.9 µg/mL (≈ 61.4 µM) |  |  | 22000 nM |
| Oc1cc(C(F)(F)F)ccc1-c1nnc(N[C@@H]2CCC[C@@H]2O)c2ccccc12 [Example 19, 2-[4-[[(1R,2S)-2-hydroxycyclopentyl]amino]phthalazin-1-yl]-5-(trifluoromethyl)phenol] | 5 nM |  | 20 nM | 26 nM | 10.6 µg/mL (≈ 27.2 µM) | 171 µM (≈ 66.6 µg/mL) |  | 23000 nM |
| Oc1cc(C(F)(F)F)ccc1-c1nnc(N[C@@H]2CCC[C@H]2O)c2ccccc12 [Example 20, 2-[4-[[(1R,2R)-2-hydroxycyclopentyl]amino]phthalazin-1-yl]-5-(trifluoromethyl)phenol] | 10 nM |  | 46 nM | 162 nM | 8.6 µg/mL (≈ 22.1 µM) | 206 µM (≈ 80.2 µg/mL) |  |  |
| Oc1cc(C(F)(F)F)ccc1-c1nnc(N[C@H]2CCC[C@H]2O)c2ccccc12 [Example 21, 2-[4-[[(1S,2R)-2-hydroxycyclopentyl]amino]phthalazin-1-yl]-5-(trifluoromethyl)phenol] | 8 nM |  | 36 nM | 105 nM | 14.5 µg/mL (≈ 37.2 µM) | 71 µM (≈ 27.6 µg/mL) |  | 19000 nM |
| Oc1cc(C(F)(F)F)ccc1-c1nnc(N[C@H]2CCC[C@@H]2O)c2ccccc12 [Example 22, 2-[4-[[(1S,2S)-2-hydroxycyclopentyl]amino]phthalazin-1-yl]-5-(trifluoromethyl)phenol] | 187 nM |  |  | 2410 nM | 9.2 µg/mL (≈ 23.6 µM) | 172 µM (≈ 67 µg/mL) |  |  |
| Oc1cc(C(F)(F)F)ccc1-c1nnc(N[C@@H]2CCCC[C@@H]2O)c2ccccc12 [Example 23, 2-[4-[[(1R,2S)-2-hydroxycyclohexyl]amino]phthalazin-1-yl]-5-(trifluoromethyl)phenol] | 14 nM |  | 31 nM | 156 nM | 4.4 µg/mL (≈ 10.9 µM) | 0.4 µM (≈ 0.161 µg/mL) |  | 21000 nM |
| Oc1cc(C(F)(F)F)ccc1-c1nnc(N[C@@H]2CCCC[C@H]2O)c2ccccc12 [Example 24, 2-[4-[[(1R,2R)-2-hydroxycyclohexyl]amino]phthalazin-1-yl]-5-(trifluoromethyl)phenol] | 5 nM |  | 9 nM | 38 nM | 7.9 µg/mL (≈ 19.6 µM) | 148 µM (≈ 59.7 µg/mL) |  | 17000 nM |
| Oc1cc(C(F)(F)F)ccc1-c1nnc(N[C@H]2CCCC[C@@H]2O)c2ccccc12 [Example 26, 2-[4-[[(1S,2S)-2-hydroxycyclohexyl]amino]phthalazin-1-yl]-5-(trifluoromethyl)phenol] | 602 nM |  |  | 1980 nM | 8.3 µg/mL (≈ 20.6 µM) | 148 µM (≈ 59.7 µg/mL) |  |  |
| Oc1cc(C(F)(F)F)ccc1-c1nnc(N[C@H]2C[C@@H](O)C2)c2ccccc12 [Example 33, 2-(4-(((1s,3s)-3-hydroxycyclobutyl)amino)phthalazin-1-yl)-5-(trifluoromethyl)phenol] | 46 nM |  | 122 nM | 206 nM | 2.6 µg/mL (≈ 6.93 µM) |  |  |  |
| C[C@]1(O)C[C@@H](Nc2nnc(-c3ccc(C(F)(F)F)cc3O)c3ccccc23)C1 [Example 37, 2-(4-(((1s,3s)-3-hydroxy-3-methylcyclobutyl)amino)phthalazin-1-yl)-5-(trifluoromethyl)phenol] |  |  | 32 nM | 339 nM |  |  |  | 29000 nM |
| Oc1cc(Cl)ccc1-c1nnc(N[C@@H]2CCCC[C@H]2O)c2cnccc12 [Example 58, 5-chloro-2-[4-[[(1R,2R)-2-hydroxycyclohexyl]amino]pyrido[3,4-d]pyridazin-1-yl]phenol] | 2 nM |  |  | 11 nM | 42.4 µg/mL (≈ 114 µM) |  |  | > 40000 nM |
| C[C@]1(O)C[C@@H](Nc2nnc(-c3c(O)cc(F)cc3F)c3ccncc23)C1 [Example 69, 3,5-difluoro-2-(4-(((1s,3s)-3-hydroxy-3-methylcyclobutyl)amino)pyrido[3,4-d]pyridazin-1-yl)phenol] |  |  | 149 nM | 301 nM | 13.6 µg/mL (≈ 38 µM) | 29 µM (≈ 10.4 µg/mL) | 38 nM |  |
| CC(C)(O)CNc1nnc(-c2c(O)cc(Cl)cc2F)c2ccncc12 [Example 73, 5-chloro-3-fluoro-2-[4-[(2-hydroxy-2-methyl-propyl)amino]pyrido[3,4-d]pyridazin-1-yl]phenol] | 15 nM |  |  | 142 nM | 14.1 µg/mL (≈ 38.9 µM) |  |  | > 40000 nM |
| Oc1cccc(F)c1-c1nnc(N[C@@H]2CCCC[C@H]2O)c2cnccc12 [Example 76, 3-fluoro-2-(4-(((1R,2R)-2-hydroxycyclohexyl)amino)pyrido[3,4-d]pyridazin-1-yl)phenol] |  |  |  | 128 nM |  |  |  | > 40000 nM |

The next lines start with results.

| IC50 (Human NLRP3 [1]; [5]) | Test F Solubility [2] | IC50 (Human NLRP3 [3]) | EC50 (Human NLRP3 [4]) | solubility [2] | solubility (Solubility (Test E)) | IC50 (Human NLRP3 [1]) | Structure (SMILES) | IC50 (hERG) |
| --- | --- | --- | --- | --- | --- | --- | --- | --- |
| 26 nM |  |  | 220 nM | 14.7 µg/mL (≈ 37.4 µM) | 155 µM (≈ 61 µg/mL) |  | Cc1ccc2c(NC[C@H](O)CO)nnc(-c3ccc(C(F)(F)F)cc3O)c2c1 [Example 15, (2S)-3-[[4-[2-hydroxy-4-(trifluoromethyl)phenyl]-6-methyl-phthalazin-1-yl]amino]propane-1,2-diol] |  |
| 86 nM |  | 169 nM | 290 nM | 27.5 µg/mL (≈ 70.6 µM) |  |  | Oc1cc(C(F)(F)F)ccc1-c1nnc(N[C@H]2CC[C@H](O)C2)c2ccccc12 [Example 17, 2-[4-[[(1S,3S)-3-hydroxycyclopentyl]amino]phthalazin-1-yl]-5-(trifluoromethyl)phenol] |  |
| 63 nM |  | 141 nM | 248 nM | 1.4 µg/mL (≈ 3.73 µM) |  |  | Oc1cc(C(F)(F)F)ccc1-c1nnc(N[C@H]2C[C@H](O)C2)c2ccccc12 [Example 32, 2-(4-(((1r,3r)-3-hydroxycyclobutyl)amino)phthalazin-1-yl)-5-(trifluoromethyl)phenol] |  |
| < 3 nM |  |  | 16 nM | 40.1 µg/mL (≈ 108 µM) | 636 µM (≈ 236 µg/mL) |  | Oc1cc(Cl)ccc1-c1nnc(N[C@@H]2CCC[C@H](O)C2)c2cnccc12 [Example 44, 5-chloro-2-[4-[[(1R,3S)-3-hydroxycyclohexyl]amino]pyrido[3,4-d]pyridazin-1-yl]phenol] | > 40000 nM |
| 6 nM |  |  | 52 nM | 51.9 µg/mL (≈ 138 µM) | 447 µM (≈ 168 µg/mL) |  | Oc1cc(C2CC2)ccc1-c1nnc(N[C@@H]2CCC[C@H](O)C2)c2cnccc12 [Example 52, 5-cyclopropyl-2-[4-[[(1R,3S)-3-hydroxycyclohexyl]amino]pyrido[3,4-d]pyridazin-1-yl]phenol] | 22000 nM |
|  |  | 114 nM | 373 nM | 1.1 µg/mL (≈ 2.93 µM) | 11 µM (≈ 4.12 µg/mL) | 37 nM | C[C@]1(O)C[C@@H](Nc2nnc(-c3ccc(Cl)c(F)c3O)c3ccncc23)C1 [Example 65, 3-chloro-2-fluoro-6-(4-(((1s,3s)-3-hydroxy-3-methylcyclobutyl)amino)pyrido[3,4-d]pyridazin-1-yl)phenol] |  |
|  |  | 24 nM | 67 nM | 1.5 µg/mL (≈ 3.67 µM) | 3 µM (≈ 1.23 µg/mL) | 8 nM | C[C@]1(O)C[C@@H](Nc2nnc(-c3c(O)cc(C(F)(F)F)cc3F)c3ccncc23)C1 [Example 67, 3-fluoro-2-(4-(((1s,3s)-3-hydroxy-3-methylcyclobutyl)amino)pyrido[3,4-d]pyridazin-1-yl)-5-(trifluoromethyl)phenol] |  |
|  |  | 10 nM | 124 nM |  |  |  | Oc1cc(F)ccc1-c1nnc(N[C@@H]2CCCC[C@H]2O)c2cnccc12 [Example 75, 5-fluoro-2-(4-(((1R,2R)-2-hydroxycyclohexyl)amino)pyrido[3,4-d]pyridazin-1-yl)phenol] | > 40000 nM |
| 27 nM |  |  | 88 nM | > 78.1 µg/mL | 20 µM (≈ 7.81 µg/mL) |  | C[C@]1(O)C[C@H](Nc2nnc(-c3ccc(C(F)(F)F)cc3O)c3ccncc23)C1 [Example 84, 2-(4-(((1r,3r)-3-hydroxy-3-methylcyclobutyl)amino)pyrido[3,4-d]pyridazin-1-yl)-5-(trifluoromethyl)phenol] |  |
